Laboratory results: the NIST ThermoML archive (doi:10.1016/j.jct.2004.08.006)
Numbers after ± are expanded uncertainties.

Conditions: 298.15 K; 101.33 kPa; Crystal

Row | mass density [kg/m3] | Structure (SMILES)
1 | 1100 ± 200 | NC(=O)c1cnccn1 [pyrazinecarboxamide]
2 | 1200 ± 200 | O=C(O)c1cnccn1 [2-pyrazinecarboxylic acid]
